Assay results reported in patent US20250032511A1, “[…] USE IN TREATMENT OF SUPER […] EPILEPTICUS” (MARINUS PHARMACEUTICALS, INC., priority 2023, published 2025).

How the values were obtained:
[1] = tested on: super refractory status epilepticus; experiment: Case report: intravenous ganaxolone in a patient with super refractory status epilepticus (EEG, mental status); format: in vivo, human
[2] = in contrast to allopregnanolone; cited from earlier work
[3] = tested on: SRSE; settings: SRSE patients; anesthesia weaned until seizures started, then higher IV doses; cited from earlier work

## CC(=O)[C@H]1CC[C@H]2[C@@H]3CC[C@H]4C[C@](C)(O)CC[C@]4(C)[C@H]3CC[C@]12C [Ganaxolone, 3α-hydroxy-3β-methyl-5α-pregnan-20-one]
[1]; before GNX: 2-4 Hz GPDs, same patient and regimen
  frequency of remaining generalized periodic discharges (GPDs) on EEG in subsequent days: up to 1 Hz
[1]; late initiation of GNX (hospital day 52)
  overall outcome of the case: electrographic and clinical improvement
[1]; person, SRSE, IV 20 mg bolus, 60 mg/hr first hour, then 42 mg/hr, total 7 days
  EEG pattern during GNX infusion: marked improvement in the EEG pattern
[1]; same patient, eye opening, attending, communicating with gestures and facial expressions
  mental status: returned to their premorbid baseline
[2]
  oral bioavailability: orally bioavailable
[3]
  clinical outcome of earlier higher-dose regimen: showed early success, but seizures returned in some patients when ganaxolone serum levels were reduced
